Measurements from article PMC10743905, “Design, Synthesis, and In Vitro and In Vivo Bioactivity Studies of Hydrazide–Hydrazones of 2,4-Dihydroxybenzoic Acid” (International Journal of Molecular Sciences, 2023).
pIC50: −log10 of the molar value. ≈ marks a conversion by molar mass, not a printed value.

Experiments:
Assay type in all cases: cell-based
[1] = system: Gram-negative bacteria; test: Broth microdilution, summary over the Gram-negative panel
From the text: In vitro antimicrobial activity assays - Methodology
The examined compounds 1 - 24 were screened in vitro for antibacterial and antifungal activities using the broth microdilution method according to procedure reported earlier by our research group and European Committee on Antimicrobial Susceptibility Testing (EUCAST) and Clinical and Laboratory Standards Institute (CLSI) guidelines against a panel of reference and clinical or saprophytic strains of microorganisms, in-cluding Gram-positive bacteria, Staphylococcus aureus ATCC 43300 (Methicillin Resistant S. aureus – MRSA), Staphylococcus aureus ATCC 29213 (Methicillin Susceptible S. aureus – MSSA), Staphylococcus epidermidis ATCC 12228, Enterococcus faecalis ATCC 29212, Micro-coccus luteus ATCC 10240, Bacillus subtilis ATCC 6633 and Bacillus cereus ATCC 10876), Gram-negative bacteria (Bordetella bronchiseptica ATCC 4617, Escherichia coli ATCC 25922, Klebsiella pneumoniae ATCC 13883, Proteus mirabilis ATCC 12453, Salmonella typhimurium ATCC 14028 and Pseudomonas aeruginosa ATCC 9027) and fungi belonging to yeasts (Can-dida albicans ATCC 10231, Candida albicans ATCC 2091, Candida parapsilosis ATCC 22019, Candida glabrata ATCC 90030 and Candida krusei ATCC 14243). The microorganisms be-longing to ATCC came from American Type Culture Collection, routinely used for the evaluation of antimicrobials. All the used microbial cultures were first subcultured on nu-trient agar or Sabouraud agar at 35°C for 18-24 h or 30°C for 24-48 h for bacteria and fungi, […]
The surface of Mueller-Hinton agar (for bacteria) and RPMI 1640 with MOPS (for fungi) were inoculated with the suspensions of bacterial or fungal species. Microbial suspensions were prepared in sterile saline with an optical density of McFarland standard scale 0.5.
Samples containing examined compounds were dissolved in dimethyl sulfoxide (DMSO).
Furthermore, bacterial and fungal suspensions were put onto Petri dishes with solid me-dia containing 2 mg/mL of the tested compounds followed incubation at 37°C for 24h and 30°C for 48h for bacteria and fungi, respectively. The inhibition of microbial growth was judged by comparison with a control culture prepared without any sample tested. Ciprof-loxacin, vancomycin, nitrofurantoin, cefuroxime, ampicillin or nystatin (Sigma) were used as a reference antibacterial or antifungal compounds, respectively.
Subsequently, the MIC (Minimal Inhibitory Concentration) of the compounds was ex-amined by the microdilution broth method, using their two-fold dilutions in Mueller- […]
Hinton broth or (for bacteria) and RPMI 1640 broth with MOPS (for fungi) prepared in 96-well polystyrene plates. Final concentrations of the compounds ranged from 1000 to 0.488 µg/ml. Microbial suspensions were prepared in 0.85% NaCl with an optical density of 0.5 McFarland standard. Next each bacterial or fungal suspension was added per each well containing broth and various concentrations of the examined compounds. After incuba-

[2] = system: HepG2; test: MTT antiproliferative assay; conditions: Homo sapiens, 24 h incubation, hepatocellular carcinoma
Method: (§1) The in vitro studies were performed on the reference line HEK-293 (human embryonic kidney cells, ATCC® CRL-1573™) and […] human cancer cell lines: 769-P (adenocarcinoma, renal cells, ATCC® CRL-1933™) and HepG2 (carcinoma, hepatocellular, ATCC® HB-8065™), H1563 (adenocarcinoma, non-smallcell lung cancer, ATCC® CRL-5875™), LN-229 (glioblastoma, ATCC® CRL-2611™). Cells from the 769-P and H1563 cell lines were cultured in RPMI-1640 growth medium (PAN Biotech GmbH, Aidenbach, Bayern, Germany), cells from the HEK-293 and HepG2 cell lines were cultured in EMEM growth medium (PAN Biotech GmbH, Aidenbach, Bayern, Germany), and cells from the LN-229 cell line were cultured in DMEM growth medium (PAN Biotech GmbH, Aidenbach, Bayern, Germany) in sterile 75 cm^2 culture phalcones. Fetal bovine serum (PAN Biotech GmbH, Aidenbach, Bayern, Germany) at 10% of growth medium and antibiotics (Sigma-Aldrich, Poland) (2.5 µg/mL amphotericin B, 100 µg/mL penicillin, and 100 µg/mL streptomycin) were added to all media. Cells were cultured at 37 °C in an incubator with 5% CO2 flow until a cell layer was formed. Following this, the medium was removed, and the cells were washed with 0.25% trypsin solution with 2.21 mM EDTA (Corning Incorporated, Corning, NY, USA) in order to completely remove fetal bovine serum containing trypsin inhibitor. Finally, 6 mL of complete growth medium was added, and the cells were aspirated by gentle pipetting.
(§2) The determination of inhibitory concentration (IC50) in the HEK-293, 769-P, HepG2, H1563, and LN-229 cell cultures for selected hydrazide–hydrazones was performed using the MTT assay procedure. This test was performed according to the MTT Assay ECVAM n°17 protocol manual prepared by the European Centre for the Validation of Alternative Methods (ECVAM), an entity that aims to reduce in vivo testing in favor of in vitro and in silico methods. To 96-well sterile plates, 100 μL of cell suspensions, prepared in the appropriate medium at a concentration of 3 × 10^5 cells/mL, was added using a multichannel pipette. To achieve cell adhesion to the bottom of the plates, cells were incubated for 24 h at 37 °C with 5% CO2 flow and 90% humidity. […] After this time, all medium was removed, 100 μL of DMSO (Corning Incorporated, Corning, NY, USA) was added to each well, and absorbance measurements were performed at 550 nm using a Power Weave xs spectrophotometric microplate reader (BioTek, Winooski, VT, USA). The decrease in absorbance is equivalent to the decrease in MTT formazan production, which is due to the decrease in mitochondrial dehydrogenase activity and indicates a cytotoxic effect from the tested substances. Cell viability is expressed as a percentage as the ratio of the absorbance of test substance-treated cells to the untreated cells. […]

[3] = system: HEK-293; test: MTT cytotoxicity assay, reference line; conditions: Homo sapiens, HEK293, 24 h incubation, non-tumor reference line
Method: as §1, §2

Structure (SMILES)	MBC [1] [µg/mL]	MIC [1] [µg/mL]	pIC50 [2]	pIC50 [3]
CCCc1ccc(/C=N/NC(=O)c2ccc(O)cc2O)cc1 [Compound 13, 2,4-dihydroxy-N-[(4-propylphenyl)methylidene]benzohydrazide]	> 1000	500 to 1000 (≈ 1680 to 3350 µM)		
O=C(N/N=C/c1cc(I)cc(I)c1O)c1ccc(O)cc1O [Compound 18, 2,4-dihydroxy-N-[(2-hydroxy-3,5-diiodophenyl)methylidene]benzohydrazide]	> 1000	500 to 1000 (≈ 954 to 1910 µM)		
O=C(N/N=C/c1ccccc1[N+](=O)[O-])c1ccc(O)cc1O [Compound 19, 2,4-dihydroxy-N-[(2-nitrophenyl)methylidene]benzohydrazide]		500 to 1000 (≈ 1660 to 3320 µM)	< 3.30	
O=C(N/N=C/c1cccc([N+](=O)[O-])c1)c1ccc(O)cc1O [Compound 20, 2,4-dihydroxy-N-[(3-nitrophenyl)methylidene]benzohydrazide]			< 3.30	1.87
O=C(N/N=C/c1ccc([N+](=O)[O-])cc1)c1ccc(O)cc1O [Compound 21, 2,4-dihydroxy-N-[(4-nitrophenyl)methylidene]benzohydrazide]			5.11	
O=C(N/N=C/c1ccccc1Cl)c1ccc(O)cc1O [Compound 22, N-[(2-chlorophenyl)methylidene]-2,4-dihydroxybenzohydrazide]				3.50
O=C(N/N=C/c1ccccc1Br)c1ccc(O)cc1O [Compound 23, N-[(2-bromophenyl)methylidene]-2,4-dihydroxybenzohydrazide]				1.04
O=C(N/N=C/c1ccccc1F)c1ccc(O)cc1O [Compound 24, N-[(2-fluorophenyl)methylidene]-2,4-dihydroxybenzohydrazide]			< 3.30	3.41
